{"source": "patent US20180000085A1", "about": "“USE OF PICOLINAMIDE COMPOUNDS WITH FUNGICIDAL ACTIVITY” (DOW AGROSCIENCES LLC, priority 2014, published 2018)", "key": {"Puccinia triticina": {"tested_on": "Puccinia triticina", "assay": "Wheat brown rust (PUCCRT) disease control on wheat seedlings", "type": "in vivo", "parameters": "key to PUCCRT 3DC, HV activity at 100 ppm (% control rating) / PUCCRT disease control, 3DC / PUCCRT 1DP disease control rating, HV activity / PUCCRT 3DC disease control rating, HV activity / PUCCRT 3DC, LV activity at 125.1 g/H (% Control rating) / PUCCRT 1DP, LV activity at 125.1 g/H (% Control rating) / PUCCRT 3DC disease control rating, LV activity at 125.1 g/H / PUCCRT 1DP disease control rating, LV activity at 125.1 g/H / PUCCRT 3DC disease control rating, HV activity at 100 ppm / PUCCRT 1DP disease control rating, HV activity at 100 ppm / HV activity at 100 ppm PUCCRT 3DC (disease control rating) / LV activity at 125.1 g/H PUCCRT 1DP (disease control rating) / LV activity at 125.1 g/H PUCCRT 3DC (disease control rating): A: > 80; B: ≤ 80; C: Not Tested; D: No Activity Observed in the Reported Assay"}, "Zymoseptoria tritici": {"tested_on": "Zymoseptoria tritici", "assay": "Leaf blotch of wheat (SEPTTR) disease control on wheat seedlings", "type": "in vivo", "parameters": "key to SEPTTR 1DP, HV activity at 100 ppm (% control rating) / SEPTTR 3DC, HV activity at 100 ppm (% control rating) / SEPTTR disease control, 1DP / SEPTTR disease control, 3DC / SEPTTR 1DP disease control rating, HV activity / SEPTTR 3DC disease control rating, HV activity / SEPTTR 3DC, LV activity at 125.1 g/H (% Control rating) / SEPTTR 1DP, LV activity at 125.1 g/H (% Control rating) / SEPTTR 1DP disease control rating, LV activity at 125.1 g/H / SEPTTR 3DC disease control rating, LV activity at 125.1 g/H / SEPTTR 3DC disease control rating, HV activity at 100 ppm / SEPTTR 1DP disease control rating, HV activity at 100 ppm / HV activity at 100 ppm SEPTTR 3DC (disease control rating) / HV activity at 100 ppm SEPTTR 1DP (disease control rating) / LV activity at 125.1 g/H SEPTTR 1DP (disease control rating) / LV activity at 125.1 g/H SEPTTR 3DC (disease control rating): A: > 80; B: ≤ 80; C: Not Tested; D: No Activity Observed in the Reported Assay"}, "[1]": {"conditions": "high volume application, 100 ppm, 1 day protectant"}, "[2]": {"conditions": "high volume application, 100 ppm, 3 day curative"}, "[3]": {"conditions": "low volume application, 125.1 g/H, 1 day protectant"}, "[4]": {"conditions": "low volume application, 125.1 g/H, 3 day curative"}, "[5]": {"conditions": "low volume application, 125.1 g/H, 1 Day Protectant"}, "[6]": {"conditions": "low volume application, 125.1 g/H, 3 Day Curative"}, "[7]": {"conditions": "low volume application, 125.1 g/H, 1 Day Protectant, wheat brown rust"}, "[8]": {"conditions": "low volume application, 125.1 g/H, 3 Day Curative, wheat brown rust"}, "[9]": {"conditions": "low volume application, 125.1 g/H, 1 Day Protectant, wheat leaf blotch"}, "[10]": {"conditions": "low volume application, 125.1 g/H, 3 Day Curative, wheat leaf blotch"}}, "data": [{"smiles": "COc1ccnc(C(=O)N[C@@H](C)C(=O)O[C@@H](C)[C@H](Oc2ccccc2)C2CC2)c1O", "note": "[Cmpd 1016]", "values": [{"measurement": "PUCCRT 1DP disease control rating, HV activity at 100 ppm", "setting": "Puccinia triticina; [1]", "value": "A (> 80)"}, {"measurement": "PUCCRT 3DC disease control rating, HV activity at 100 ppm", "setting": "Puccinia triticina; [2]", "value": "A (> 80)"}, {"measurement": "SEPTTR 1DP disease control rating, HV activity at 100 ppm", "setting": "Zymoseptoria tritici; [1]", "value": "B (≤ 80)"}, {"measurement": "SEPTTR 3DC disease control rating, HV activity at 100 ppm", "setting": "Zymoseptoria tritici; [2]", "value": "B (≤ 80)"}]}, {"smiles": "C=CC[C@@H](Oc1ccccc1)[C@H](C)OC(=O)[C@H](C)NC(=O)c1nccc(OC)c1OCOC(C)=O", "note": "[Cmpd 698]", "values": [{"measurement": "PUCCRT 1DP disease control rating, LV activity at 125.1 g/H", "setting": "Puccinia triticina; [3]", "value": "A (> 80)"}, {"measurement": "PUCCRT 3DC disease control rating, LV activity at 125.1 g/H", "setting": "Puccinia triticina; [4]", "value": "A (> 80)"}, {"measurement": "SEPTTR 1DP disease control rating, LV activity at 125.1 g/H", "setting": "Zymoseptoria tritici; [3]", "value": "B (≤ 80)"}, {"measurement": "SEPTTR 3DC disease control rating, LV activity at 125.1 g/H", "setting": "Zymoseptoria tritici; [4]", "value": "A (> 80)"}]}, {"smiles": "COc1ccnc(C(=O)N[C@@H](C)C(=O)O[C@@H](C)[C@H](Oc2ccc(C(F)(F)F)cc2)c2ccccc2)c1OC(C)=O", "note": "[Cmpd 583]", "values": [{"measurement": "PUCCRT 1DP, LV activity at 125.1 g/H (% Control rating)", "setting": "Puccinia triticina; [5]", "value": "A (> 80)"}, {"measurement": "PUCCRT 3DC, LV activity at 125.1 g/H (% Control rating)", "setting": "Puccinia triticina; [6]", "value": "B (≤ 80)"}, {"measurement": "SEPTTR 1DP, LV activity at 125.1 g/H (% Control rating)", "setting": "Zymoseptoria tritici; [5]", "value": "A (> 80)"}, {"measurement": "SEPTTR 3DC, LV activity at 125.1 g/H (% Control rating)", "setting": "Zymoseptoria tritici; [6]", "value": "A (> 80)"}]}, {"smiles": "COc1cccc(O[C@H](C2CC2)[C@H](C)OC(=O)[C@H](C)NC(=O)c2nccc(OC)c2OC(C)=O)c1", "note": "[Cmpd 1061]", "values": [{"measurement": "LV activity at 125.1 g/H PUCCRT 1DP (disease control rating)", "setting": "Puccinia triticina; [7]", "value": "B (≤ 80)"}, {"measurement": "LV activity at 125.1 g/H PUCCRT 3DC (disease control rating)", "setting": "Puccinia triticina; [8]", "value": "A (> 80)"}, {"measurement": "LV activity at 125.1 g/H SEPTTR 1DP (disease control rating)", "setting": "Zymoseptoria tritici; [9]", "value": "D"}, {"measurement": "LV activity at 125.1 g/H SEPTTR 3DC (disease control rating)", "setting": "Zymoseptoria tritici; [10]", "value": "B (≤ 80)"}]}, {"smiles": "CCC(CC)[C@@H](Oc1ccc(-c2ccccc2)cc1)[C@H](C)OC(=O)[C@@H](NC(=O)c1nccc(OC)c1OCOC(C)=O)C(C)C", "note": "[Cmpd 655]", "values": [{"measurement": "PUCCRT 1DP, LV activity at 125.1 g/H (% Control rating)", "setting": "Puccinia triticina; [5]", "value": "A (> 80)"}, {"measurement": "PUCCRT 3DC, LV activity at 125.1 g/H (% Control rating)", "setting": "Puccinia triticina; [6]", "value": "B (≤ 80)"}, {"measurement": "SEPTTR 1DP, LV activity at 125.1 g/H (% Control rating)", "setting": "Zymoseptoria tritici; [5]", "value": "A (> 80)"}, {"measurement": "SEPTTR 3DC, LV activity at 125.1 g/H (% Control rating)", "setting": "Zymoseptoria tritici; [6]", "value": "B (≤ 80)"}]}, {"smiles": "COc1ccnc(C(=O)N[C@@H](C)C(=O)O[C@@H](C)[C@@H](CC(C)C)Oc2ccc3ccccc3c2)c1O", "note": "[Cmpd 1046]", "values": [{"measurement": "HV activity at 100 ppm PUCCRT 1DP (disease control rating)", "setting": "Puccinia triticina; HV application, 100 ppm, 1 Day Protectant, wheat brown rust", "value": "A (> 80)"}, {"measurement": "HV activity at 100 ppm PUCCRT 3DC (disease control rating)", "setting": "Puccinia triticina; HV application, 100 ppm, 3 Day Curative, wheat brown rust", "value": "A (> 80)"}, {"measurement": "HV activity at 100 ppm SEPTTR 1DP (disease control rating)", "setting": "Zymoseptoria tritici; HV application, 100 ppm, 1 Day Protectant, wheat leaf blotch", "value": "D"}, {"measurement": "HV activity at 100 ppm SEPTTR 3DC (disease control rating)", "setting": "Zymoseptoria tritici; HV application, 100 ppm, 3 Day Curative, wheat leaf blotch", "value": "D"}]}, {"smiles": "C=CC(OC(=O)C(C)NC(=O)c1nccc(OC)c1OCOC(C)=O)C(Oc1ccccc1)C(C)C", "note": "(stereo not drawn) [Cmpd 1092]", "values": [{"measurement": "LV activity at 125.1 g/H PUCCRT 1DP (disease control rating)", "setting": "Puccinia triticina; [7]", "value": "B (≤ 80)"}, {"measurement": "LV activity at 125.1 g/H PUCCRT 3DC (disease control rating)", "setting": "Puccinia triticina; [8]", "value": "B (≤ 80)"}, {"measurement": "LV activity at 125.1 g/H SEPTTR 1DP (disease control rating)", "setting": "Zymoseptoria tritici; [9]", "value": "D"}, {"measurement": "LV activity at 125.1 g/H SEPTTR 3DC (disease control rating)", "setting": "Zymoseptoria tritici; [10]", "value": "D"}]}, {"smiles": "COc1ccnc(C(=O)N[C@@H](C)C(=O)O[C@@H](C)[C@H](Oc2cc(F)cc(Cl)c2)C(C)C)c1OC(C)=O", "note": "[Cmpd 628]", "values": [{"measurement": "PUCCRT 1DP, LV activity at 125.1 g/H (% Control rating)", "setting": "Puccinia triticina; [5]", "value": "A (> 80)"}, {"measurement": "PUCCRT 3DC, LV activity at 125.1 g/H (% Control rating)", "setting": "Puccinia triticina; [6]", "value": "A (> 80)"}, {"measurement": "SEPTTR 1DP, LV activity at 125.1 g/H (% Control rating)", "setting": "Zymoseptoria tritici; [5]", "value": "B (≤ 80)"}, {"measurement": "SEPTTR 3DC, LV activity at 125.1 g/H (% Control rating)", "setting": "Zymoseptoria tritici; [6]", "value": "A (> 80)"}]}, {"smiles": "CCCOC(CC)C(Oc1ccccc1)C(C)OC(=O)C1(NC(=O)c2nccc(OC)c2O)CC1", "note": "(stereo not drawn) [Cmpd 416]", "values": [{"measurement": "PUCCRT 1DP disease control rating, HV activity", "setting": "Puccinia triticina; HV application at 100 ppm, 1 Day Protectant, wheat brown rust", "value": "B (≤ 80)"}, {"measurement": "PUCCRT 3DC disease control rating, HV activity", "setting": "Puccinia triticina; HV application at 100 ppm, 3 Day Curative, wheat brown rust", "value": "D"}, {"measurement": "SEPTTR 1DP disease control rating, HV activity", "setting": "Zymoseptoria tritici; HV application at 100 ppm, 1 Day Protectant, wheat leaf blotch", "value": "B (≤ 80)"}, {"measurement": "SEPTTR 3DC disease control rating, HV activity", "setting": "Zymoseptoria tritici; HV application at 100 ppm, 3 Day Curative, wheat leaf blotch", "value": "D"}]}]}
